Source: the supplement of paper PMC11061612

Tests used:
Test in all cases: combination Emax (second highest fraction inhibited in the dose matrix, 72 h); higher = more inhibition; extreme values may be limits of the assay
[1] = test system: ALL-PO (B-Lymphoblastic Leukemia)
Outline: (§1)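 After 24 hours at 37°C and 5% CO2 in 1536-well plates, cells in DMEM/F12 or RPMI plus 10% FBS received two-drug dose matrices for 72 hours. Viability came from CellTiter-Glo 2.0 luminescence and was scaled as inhibition, anchored at 0 by vehicle wells and at 1 by blank wells. Combination Emax is taken as the second-highest inhibition in the matrix, and Bliss excess as the observed combination effect less EA + EB − EA·EB, with EA and EB the single-agent effects.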

[2] = test system: BE-13 (T-Lymphoblastic Leukemia)
Outline: as §1

[3] = test system: BFTC-909 (Kidney Carcinoma)
Outline: as §1

BPH-1 (Non-Cancerous) = test system: BPH-1 (Non-Cancerous)
Outline: as §1

[4] = test system: CAL-33 (Oral Cavity Carcinoma)
Outline: as §1

GAMG (Glioblastoma) = test system: GAMG (Glioblastoma)
Outline: as §1

[5] = test system: HH (T-Cell Non-Hodgkin's Lymphoma)
Outline: as §1

[6] = test system: HuH-7 (Hepatocellular Carcinoma)
Outline: as §1

[7] = test system: KMRC-20 (Kidney Carcinoma)
Outline: as §1

KS-1 (Glioblastoma) = test system: KS-1 (Glioblastoma)
Outline: as §1

[8] = test system: KYAE-1 (Esophageal Adenocarcinoma)
Outline: as §1

LOXIMVI (Melanoma) = test system: LOXIMVI (Melanoma)
Outline: as §1

[9] = test system: LS-123 (Colorectal Carcinoma)
Outline: as §1

MPP-89 (Mesothelioma) = test system: MPP-89 (Mesothelioma)
Outline: as §1

[10] = test system: NCI-H1568 (Lung Adenocarcinoma)
Outline: as §1

[11] = test system: OV-56 (Ovarian Carcinoma)
Outline: as §1

[12] = test system: SNU-449 (Hepatocellular Carcinoma)
Outline: as §1

[13] = test system: SW1710 (Bladder Carcinoma)
Outline: as §1

[14] = test system: WSU-NHL (B-Cell Non-Hodgkin's Lymphoma)
Outline: as §1

[15] = test system: YAPC (Pancreatic Carcinoma)
Outline: as §1

Row | Compound | combination Emax [1] | combination Emax [2] | combination Emax [3] | combination Emax (BPH-1 (Non-Cancerous)) | combination Emax [4] | combination Emax (GAMG (Glioblastoma)) | combination Emax [5] | combination Emax [6] | combination Emax [7] | combination Emax (KS-1 (Glioblastoma)) | combination Emax [8] | combination Emax (LOXIMVI (Melanoma)) | combination Emax [9] | combination Emax (MPP-89 (Mesothelioma)) | combination Emax [10] | combination Emax [11] | combination Emax [12] | combination Emax [13] | combination Emax [14] | combination Emax [15]
1 | COc1nnc2ccc(N3CCC(c4ccc(OCCN5CCN(C)C(=O)[C@H]5C)cc4)CC3)nn12 [AZD5153] + Cc1c2c(nn1C)CSCc1cc(n(C)n1)CSc1cc(c3ccccc3c1)OCCCc1c(C(=O)O)n(C)c3c-2c(Cl)ccc13 [AZD5991] (first compound max 1 µM, 7x7, partner max 1 µM) | 1 | 0.998 | 0.535 | 0.86 | 0.628 | 0.425 | 1 | 0.755 | 0.37 | 0.629 | 0.0912 | 0.975 | 0.406 | 0.581 | 0.393 | 0.351 | 0.292 | 0.355 | 1 | 0.365
2 | Cc1c2c(nn1C)CSCc1cc(n(C)n1)CSc1cc(c3ccccc3c1)OCCCc1c(C(=O)O)n(C)c3c-2c(Cl)ccc13 [AZD5991] + Cn1cnc2c(F)c(Nc3ccc(Br)cc3Cl)c(C(=O)NOCCO)cc21 [Selumetinib] (first compound max 1 µM, 7x7, partner max 3 µM) | 1 | 0.449 | 0.3 | 0.604 | 0.411 | 0.299 | 0.714 | 0.301 | 0.196 | 0.31 | 0.163 | 0.513 | 0.455 | 0.193 | 0.563 | 0.189 | 0.246 | 0.256 | 0.934 | 0.209
3 | COc1nnc2ccc(N3CCC(c4ccc(OCCN5CCN(C)C(=O)[C@H]5C)cc4)CC3)nn12 [AZD5153] + CC1(C)CCC(CN2CCN(c3ccc(C(=O)NS(=O)(=O)c4ccc(NCC5CCOCC5)c([N+](=O)[O-])c4)c(Oc4cnc5[nH]ccc5c4)c3)CC2)=C(c2ccc(Cl)cc2)C1 [Venetoclax] (first compound max 1 µM, 7x7, partner max 1 µM) | 0.889 | 0.708 | 0.496 | 0.745 | 0.402 | 0.436 | 0.406 | 0.442 | 0.452 | 0.649 | 0.0501 | 0.882 | 0.43 | 0.497 | 0.251 | 0.24 | 0.252 | 0.291 | 0.978 | 0.384
4 | CC1(C)CCC(CN2CCN(c3ccc(C(=O)NS(=O)(=O)c4ccc(NCC5CCOCC5)c([N+](=O)[O-])c4)c(Oc4cnc5[nH]ccc5c4)c3)CC2)=C(c2ccc(Cl)cc2)C1 [Venetoclax] + Cn1cnc2c(F)c(Nc3ccc(Br)cc3Cl)c(C(=O)NOCCO)cc21 [Selumetinib] (first compound max 1 µM, 7x7, partner max 3 µM) | 0.538 | 0.461 | 0.23 | 0.572 | 0.266 | 0.157 | 0.132 | 0.122 | 0.217 | 0.261 | 0.0726 | 0.571 | 0.374 | 0.159 | 0.0499 | 0.108 | 0.109 | 0.216 | 0.745 | 0.145
5 | Cc1c2c(nn1C)CSCc1cc(n(C)n1)CSc1cc(c3ccccc3c1)OCCCc1c(C(=O)O)n(C)c3c-2c(Cl)ccc13 [AZD5991] + CCN(CCO)CCCOc1ccc2c(Nc3cc(CC(=O)Nc4cccc(F)c4)[nH]n3)ncnc2c1 [AZD2811] (first compound max 1 µM, 7x7, partner max 1 µM) | 1 | 0.929 | 0.438 | 0.873 | 0.911 | 0.534 | 0.728 | 0.219 | 0.312 | 0.286 | 0.296 | 0.339 | 0.229 | 0.248 | 0.306 | 0.2 | 0.282 | 0.228 | 0.92 | 0.238
6 | COc1cccc(OCCCN)c1-c1cc(Nc2cnc(C#N)cn2)n[nH]1 [Prexasertib] + Cc1cc2ncnn2cc1Nc1ncc2c(n1)n(C1CCOCC1)c(=O)n2C [AZD7648] (first compound max 1 µM, 7x7, partner max 10 µM) | 0.993 | 0.952 | 0.945 | 0.319 | 0.816 | 0.777 | 0.65 | 0.329 | 0.858 | 0.546 | 0.467 | 0.784 | 0.764 | 0.734 | 0.54 | 0.88 | 0.308 | 0.728 | 1 | 0.585
7 | CN(C)CCCOc1ccc(-c2ccc3ncc4c(c3c2)n(C2CCOCC2)c(=O)n4C)cn1 [AZD0156] + CCN(CCO)CCCOc1ccc2c(Nc3cc(CC(=O)Nc4cccc(F)c4)[nH]n3)ncnc2c1 [AZD2811] (first compound max 1 µM, 7x7, partner max 1 µM) | 0.977 | 0.674 | 0.127 | 0.459 | 0.71 | 0.22 | 0.151 | 0.0893 | 0.128 | 0.291 | 0.103 | 0.4 | 0.161 | 0.105 | 0.131 | 0.062 | 0.0548 | 0.0832 | 0.879 | 0.137
8 | Cn1cnc2c(F)c(Nc3ccc(Br)cc3Cl)c(C(=O)NOCCO)cc21 [Selumetinib] + C[C@@H]1COCCN1C2=NC(=NC(=C2)C3(CC3)[S@](=N)(=O)C)C4=C5C=CNC5=NC=C4 [AZD6738] (first compound max 10 µM, 7x7, partner max 10 µM) | 0.96 | 0.784 | 0.797 | 0.503 | 0.826 | 0.469 | 0.175 | 0.374 | 0.441 | 0.334 | 0.0615 | 0.778 | 0.517 | 0.329 | 0.574 | 0.29 | 0.111 | 0.26 | 0.817 | 0.22
9 | CC1(C)CCC(CN2CCN(c3ccc(C(=O)NS(=O)(=O)c4ccc(NCC5CCOCC5)c([N+](=O)[O-])c4)c(Oc4cnc5[nH]ccc5c4)c3)CC2)=C(c2ccc(Cl)cc2)C1 [Venetoclax] + C=CCn1c(=O)c2cnc(Nc3ccc(N4CCN(C)CC4)cc3)nc2n1-c1cccc(C(C)(C)O)n1 [AZD1775] (first compound max 1 µM, partner max 1 µM) | 1 | 1 | 0.667 | 0.377 | 0.761 | 0.836 | 0.766 | 0.386 | 0.627 | 0.504 | 0.706 | 0.622 | 0.633 | 0.841 | 0.479 | 0.168 | 0.239 | 0.315 | 0.985 | 0.307
10 | COc1cccc(OCCCN)c1-c1cc(Nc2cnc(C#N)cn2)n[nH]1 [Prexasertib] + O=C(c1cc(Cc2n[nH]c(=O)c3ccccc23)ccc1F)N1CCN(C(=O)C2CC2)CC1 [Olaparib] (first compound max 1 µM, 7x7, partner max 10 µM) | 0.979 | 0.978 | 0.917 | 0.497 | 0.833 | 0.83 | 0.542 | 0.3 | 0.893 | 0.628 | 0.56 | 0.788 | 0.771 | 0.714 | 0.481 | 0.89 | 0.234 | 0.761 | 1 | 0.597
11 | NC1(C(=O)N[C@@H](CCO)c2ccc(Cl)cc2)CCN(c2ncnc3[nH]ccc23)CC1 [Capivasertib] + C[C@@H]1COCCN1C2=NC(=NC(=C2)C3(CC3)[S@](=N)(=O)C)C4=C5C=CNC5=NC=C4 [AZD6738] (first compound max 10 µM, 7x7, partner max 10 µM) | 0.99 | 0.731 | 0.869 | 0.574 | 0.918 | 0.705 | 0.349 | 0.453 | 0.647 | 0.653 | 0.165 | 0.779 | 0.457 | 0.545 | 0.664 | 0.542 | 0.262 | 0.596 | 1 | 0.334
12 | CS(=O)(=O)CCNCc1ccc(-c2ccc3ncnc(Nc4ccc(OCc5cccc(F)c5)c(Cl)c4)c3c2)o1 [Lapatinib] + C[C@@H](Oc1cc(-c2cnn(C3CCNCC3)c2)cnc1N)c1c(Cl)ccc(F)c1Cl [Crizotinib] (first compound max 10 µM, 7x7, partner max 10 µM) | 1 | 0.988 | 0.869 | 0.949 | 0.989 | 0.82 | 0.327 | 0.925 | 0.916 | 0.79 | 0.842 | 0.977 | 0.746 | 0.696 | 0.952 | 0.872 | 0.827 | 0.846 | 0.966 | 0.636
13 | C=CCn1c(=O)c2cnc(Nc3ccc(N4CCN(C)CC4)cc3)nc2n1-c1cccc(C(C)(C)O)n1 [AZD1775] + O=C(c1cc(Cc2n[nH]c(=O)c3ccccc23)ccc1F)N1CCN(C(=O)C2CC2)CC1 [Olaparib] (first compound max 1 µM, partner max 10 µM) | 0.951 | 0.984 | 0.595 | 0.488 | 0.721 | 0.486 | 0.443 | 0.304 | 0.567 | 0.481 | 0.468 | 0.638 | 0.644 | 0.508 | 0.422 | 0.261 | 0.22 | 0.383 | 1 | 0.432
